# Data from ChEMBL document CHEMBL6153119, “Target Identification with Live-Cell Photoaffinity Labeling and Mechanism of Action Elucidation of ARN23765, a Highly Potent CFTR Corrector” (J Med Chem, 2025).
# Active and inactive are the calls of the source. The calls are words filed in the database; no cut-off is given here.
# What was measured:
# Format in all cases: cell-based
# [1] = target: Cystic fibrosis transmembrane conductance regulator (Homo sapiens) (UniProt P13569); experiment: Corrector activity at wild-type CFTR (unknown origin) expressed in human CFBE41o- cells assessed as restoration of CFTR level at 2.5 uM with UV light irradiation followed by CuAAC implementation by pull down assay
# Cystic fibrosis transmembrane conductance regulator (Homo sapiens), sequence (P13569 whole entry, looked up, the tested form may be a part): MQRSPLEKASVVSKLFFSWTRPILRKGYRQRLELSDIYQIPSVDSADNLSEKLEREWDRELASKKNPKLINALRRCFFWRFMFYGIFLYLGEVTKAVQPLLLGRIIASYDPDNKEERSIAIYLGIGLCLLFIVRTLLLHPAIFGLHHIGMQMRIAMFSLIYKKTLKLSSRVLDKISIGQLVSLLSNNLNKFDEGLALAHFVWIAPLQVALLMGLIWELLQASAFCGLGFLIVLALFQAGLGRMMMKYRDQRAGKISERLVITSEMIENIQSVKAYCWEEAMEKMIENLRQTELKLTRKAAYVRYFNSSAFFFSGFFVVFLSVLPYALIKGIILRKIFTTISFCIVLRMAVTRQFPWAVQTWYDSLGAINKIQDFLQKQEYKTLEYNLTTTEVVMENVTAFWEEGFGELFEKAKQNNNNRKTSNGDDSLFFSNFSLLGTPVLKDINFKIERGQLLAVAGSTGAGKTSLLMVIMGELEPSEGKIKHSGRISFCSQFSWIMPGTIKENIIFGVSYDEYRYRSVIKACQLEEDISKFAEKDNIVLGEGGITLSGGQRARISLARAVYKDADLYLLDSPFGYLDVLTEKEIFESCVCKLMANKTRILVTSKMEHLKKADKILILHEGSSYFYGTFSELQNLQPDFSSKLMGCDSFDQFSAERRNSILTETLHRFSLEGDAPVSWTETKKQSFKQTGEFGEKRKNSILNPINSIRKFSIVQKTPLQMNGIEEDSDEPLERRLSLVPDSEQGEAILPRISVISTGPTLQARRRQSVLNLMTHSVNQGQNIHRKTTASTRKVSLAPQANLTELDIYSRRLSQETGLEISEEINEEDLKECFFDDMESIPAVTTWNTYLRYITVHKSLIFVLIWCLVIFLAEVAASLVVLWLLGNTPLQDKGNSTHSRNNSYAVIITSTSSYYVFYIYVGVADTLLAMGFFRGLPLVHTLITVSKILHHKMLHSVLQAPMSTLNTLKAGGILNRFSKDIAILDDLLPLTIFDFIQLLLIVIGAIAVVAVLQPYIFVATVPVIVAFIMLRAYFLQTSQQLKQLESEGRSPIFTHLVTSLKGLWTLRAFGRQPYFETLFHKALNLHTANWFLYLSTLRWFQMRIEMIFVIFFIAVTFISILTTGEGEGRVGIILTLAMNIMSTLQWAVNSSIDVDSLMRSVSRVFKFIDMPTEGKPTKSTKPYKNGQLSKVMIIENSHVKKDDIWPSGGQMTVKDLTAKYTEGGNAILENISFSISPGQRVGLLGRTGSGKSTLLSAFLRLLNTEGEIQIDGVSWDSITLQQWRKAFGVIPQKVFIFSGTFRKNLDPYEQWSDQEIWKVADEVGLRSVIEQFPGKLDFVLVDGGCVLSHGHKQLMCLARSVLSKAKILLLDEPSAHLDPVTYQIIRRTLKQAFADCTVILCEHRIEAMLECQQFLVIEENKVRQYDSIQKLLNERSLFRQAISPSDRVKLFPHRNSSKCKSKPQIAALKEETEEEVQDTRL
# [2] = test system: Cystic fibrosis transmembrane conductance regulator (Homo sapiens), P13569 [F508del]; experiment: Corrector activity at immature CFTR F508del mutant (unknown origin) expressed in human CFBE41o- cells assessed as restoration of CFTR level at 27 degreeC at 1 uM preincubated with ARN23765 followed by compound addition measured after 2 hrs by pull down assay
# Cystic fibrosis transmembrane conductance regulator (Homo sapiens), P13569 [F508del], sequence (P13569 as listed by the source): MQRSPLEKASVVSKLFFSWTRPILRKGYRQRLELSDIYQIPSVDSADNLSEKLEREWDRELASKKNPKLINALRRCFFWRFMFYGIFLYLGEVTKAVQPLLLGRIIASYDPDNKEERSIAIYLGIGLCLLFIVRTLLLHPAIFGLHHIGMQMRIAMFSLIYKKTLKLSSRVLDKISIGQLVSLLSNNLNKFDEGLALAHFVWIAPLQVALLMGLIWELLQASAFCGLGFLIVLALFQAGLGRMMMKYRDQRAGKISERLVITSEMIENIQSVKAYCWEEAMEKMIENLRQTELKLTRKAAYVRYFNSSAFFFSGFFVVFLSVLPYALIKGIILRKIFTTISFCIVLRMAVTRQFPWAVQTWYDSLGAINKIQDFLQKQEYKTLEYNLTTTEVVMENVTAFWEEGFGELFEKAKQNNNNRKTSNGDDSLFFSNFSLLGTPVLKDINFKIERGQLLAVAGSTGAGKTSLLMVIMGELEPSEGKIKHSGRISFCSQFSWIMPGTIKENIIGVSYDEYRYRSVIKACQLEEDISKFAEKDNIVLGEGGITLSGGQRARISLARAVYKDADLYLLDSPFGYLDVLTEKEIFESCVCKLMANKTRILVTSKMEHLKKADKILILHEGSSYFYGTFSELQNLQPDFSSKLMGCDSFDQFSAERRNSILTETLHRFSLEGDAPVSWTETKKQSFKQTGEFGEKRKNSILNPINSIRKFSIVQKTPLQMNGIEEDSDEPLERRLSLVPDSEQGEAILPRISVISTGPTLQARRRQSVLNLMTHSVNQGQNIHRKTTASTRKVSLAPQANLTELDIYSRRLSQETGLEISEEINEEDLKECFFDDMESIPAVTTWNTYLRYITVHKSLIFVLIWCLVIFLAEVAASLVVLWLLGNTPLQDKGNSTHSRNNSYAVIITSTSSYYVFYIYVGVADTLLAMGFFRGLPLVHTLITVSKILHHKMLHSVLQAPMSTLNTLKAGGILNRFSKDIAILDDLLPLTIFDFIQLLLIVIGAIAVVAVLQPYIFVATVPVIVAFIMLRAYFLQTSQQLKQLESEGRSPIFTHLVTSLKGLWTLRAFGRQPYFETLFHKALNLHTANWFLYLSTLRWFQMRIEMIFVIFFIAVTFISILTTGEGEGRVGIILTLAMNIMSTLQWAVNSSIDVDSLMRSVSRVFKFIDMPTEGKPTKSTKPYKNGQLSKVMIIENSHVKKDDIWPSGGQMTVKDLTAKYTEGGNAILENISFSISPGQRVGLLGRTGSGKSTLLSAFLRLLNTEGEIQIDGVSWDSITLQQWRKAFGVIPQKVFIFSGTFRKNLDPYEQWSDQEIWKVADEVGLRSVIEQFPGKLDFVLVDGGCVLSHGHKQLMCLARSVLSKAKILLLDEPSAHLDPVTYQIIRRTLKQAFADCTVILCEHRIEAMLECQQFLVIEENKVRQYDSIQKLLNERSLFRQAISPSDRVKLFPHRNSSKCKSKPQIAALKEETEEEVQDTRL
# [3] = test system: Cystic fibrosis transmembrane conductance regulator (Homo sapiens), P13569 [F508del]; experiment: Corrector activity at mature CFTR F508del mutant (unknown origin) expressed in human CFBE41o- cells assessed as restoration of CFTR level at 27 degreeC at 1 uM preincubated with ARN23765 followed by compound addition measured after 2 hrs by pull down assay
# [4] = test system: Cystic fibrosis transmembrane conductance regulator (Homo sapiens), P13569 [F508del]; experiment: Corrector activity at CFTR F508del mutant (unknown origin) expressed in human CFBE41o- cells assessed as restoration of CFTR level at 1 uM preincubated with ARN23765 followed by compound addition measured after 2 hrs by pull down assay
# [5] = target: Cystic fibrosis transmembrane conductance regulator (Homo sapiens) (UniProt P13569); experiment: Corrector activity at CFTR in human CFBE41o- cells harboring CFTR-/- assessed as restoration of CFTR level at 1 uM preincubated with ARN23765 followed by compound addition measured after 2 hrs by pull down assay
# [6] = target: Cystic fibrosis transmembrane conductance regulator (Homo sapiens) (UniProt P13569); experiment: Corrector activity at wild-type CFTR (unknown origin) expressed in human CFBE41o- cells assessed as restoration of CFTR level at 1 uM preincubated with ARN23765 followed by compound addition measured after 2 hrs by pull down assay
# [7] = test system: Cystic fibrosis transmembrane conductance regulator (Homo sapiens), P13569 [F508del]; experiment: Corrector activity at CFTR F508del mutant (unknown origin) expressed in human CFBE41o- cells co-expressing HS-YFP assessed as maximum restoration of channel function incubated for 24 hrs by florescence based analysis (reference value: 3.0)
# [8] = test system: Cystic fibrosis transmembrane conductance regulator (Homo sapiens), P13569 [F508del/R1070W]; experiment: Corrector activity at CFTR F508del/R1070W mutant (unknown origin) transfected in HEK293 cells assessed as increase in protein maturation at 10 nM incubated for 24 hrs by Western blot analysis
# Cystic fibrosis transmembrane conductance regulator (Homo sapiens), P13569 [F508del/R1070W], sequence (P13569 as listed by the source): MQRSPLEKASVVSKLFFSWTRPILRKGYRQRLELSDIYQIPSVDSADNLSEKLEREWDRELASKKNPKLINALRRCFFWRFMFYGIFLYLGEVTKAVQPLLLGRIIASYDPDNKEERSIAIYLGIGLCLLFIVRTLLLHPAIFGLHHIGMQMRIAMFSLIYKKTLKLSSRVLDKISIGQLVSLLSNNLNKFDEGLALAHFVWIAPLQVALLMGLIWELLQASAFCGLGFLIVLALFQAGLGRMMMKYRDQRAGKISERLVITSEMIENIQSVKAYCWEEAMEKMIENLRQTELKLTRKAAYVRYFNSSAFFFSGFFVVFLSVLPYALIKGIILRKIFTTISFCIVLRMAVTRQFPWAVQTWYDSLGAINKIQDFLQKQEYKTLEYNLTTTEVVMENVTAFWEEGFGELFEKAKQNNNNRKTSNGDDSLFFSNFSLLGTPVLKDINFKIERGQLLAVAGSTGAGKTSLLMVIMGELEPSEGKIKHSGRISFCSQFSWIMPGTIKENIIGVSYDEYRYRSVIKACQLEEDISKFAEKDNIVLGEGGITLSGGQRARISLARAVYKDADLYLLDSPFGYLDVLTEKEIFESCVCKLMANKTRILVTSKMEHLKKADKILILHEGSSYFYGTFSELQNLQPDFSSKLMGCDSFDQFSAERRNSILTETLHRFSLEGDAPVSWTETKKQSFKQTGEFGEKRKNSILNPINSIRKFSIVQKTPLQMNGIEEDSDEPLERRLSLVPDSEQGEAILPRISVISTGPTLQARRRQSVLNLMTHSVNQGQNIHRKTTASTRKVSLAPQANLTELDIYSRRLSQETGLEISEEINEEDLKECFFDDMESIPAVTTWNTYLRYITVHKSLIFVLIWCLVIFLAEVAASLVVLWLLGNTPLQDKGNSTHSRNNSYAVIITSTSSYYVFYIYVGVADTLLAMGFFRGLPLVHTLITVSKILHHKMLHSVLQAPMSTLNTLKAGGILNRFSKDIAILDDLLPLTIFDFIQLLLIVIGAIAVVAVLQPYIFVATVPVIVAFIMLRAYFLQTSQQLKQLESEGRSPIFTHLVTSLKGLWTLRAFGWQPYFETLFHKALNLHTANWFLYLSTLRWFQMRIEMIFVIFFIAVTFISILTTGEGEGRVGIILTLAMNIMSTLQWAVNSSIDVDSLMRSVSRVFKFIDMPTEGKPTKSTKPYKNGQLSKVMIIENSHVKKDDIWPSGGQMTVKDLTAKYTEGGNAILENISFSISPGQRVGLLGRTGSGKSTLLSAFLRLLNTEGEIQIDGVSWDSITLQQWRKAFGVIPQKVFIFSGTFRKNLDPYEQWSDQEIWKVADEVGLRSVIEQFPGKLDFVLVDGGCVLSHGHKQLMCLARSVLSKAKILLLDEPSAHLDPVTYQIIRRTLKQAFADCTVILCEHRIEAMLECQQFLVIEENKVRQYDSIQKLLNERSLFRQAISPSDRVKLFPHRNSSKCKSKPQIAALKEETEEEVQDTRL
# [9] = test system: HEK293; experiment: Corrector activity at CFTR F508del/A198Y mutant (unknown origin) transfected in HEK293 cells assessed as increase in protein maturation at 10 nM incubated for 24 hrs by Western blot analysis; details: Homo sapiens
# [10] = target: Cystic fibrosis transmembrane conductance regulator (Homo sapiens) (UniProt P13569); experiment: Corrector activity at CFTR (unknown origin) transfected in HEK293 cells harboring CFTR fragment containing MSD1 assessed as increase in half life of CFTR MSD1 at 10 nM incubated for 24 hrs by Western blot analysis
# [11] = test system: Cystic fibrosis transmembrane conductance regulator (Homo sapiens), P13569 [F508del/K68I]; experiment: Corrector activity at CFTR F508del/K68I mutant (unknown origin) transfected in HEK293 cells assessed as increase in protein maturation at 10 nM incubated for 24 hrs by Western blot analysis
# [12] = test system: Cystic fibrosis transmembrane conductance regulator (Homo sapiens), P13569 [R170G]; experiment: Corrector activity at CFTR R170G mutant (unknown origin) transfected in HEK293 cells assessed as increase in […] at 10 nM incubated for 24 hrs by Western blot analysis
# [13] = test system: Cystic fibrosis transmembrane conductance regulator (Homo sapiens), P13569 [F508del/F81A]; experiment: Corrector activity at CFTR F508del/F81A mutant (unknown origin) transfected in HEK293 cells assessed as increase in protein maturation at 10 nM incubated for 24 hrs by Western blot analysis
# [14] = target: Cystic fibrosis transmembrane conductance regulator (Homo sapiens) (UniProt P13569); experiment: Corrector activity at CFTR (unknown origin) transfected in HEK293 cells harboring CFTR fragment containing del-R assessed as increase in expression of CFTR level at 10 nM incubated for 24 hrs by Western blot analysis
# [15] = test system: Cystic fibrosis transmembrane conductance regulator (Homo sapiens), P13569 [F508del/W361A]; experiment: Corrector activity at CFTR F508del/W361A mutant (unknown origin) transfected in HEK293 cells assessed as increase in protein maturation at 10 nM incubated for 24 hrs by Western blot analysis
# [16] = test system: Cystic fibrosis transmembrane conductance regulator (Homo sapiens), P13569 [R170G]; experiment: Corrector activity at CFTR R170G mutant (unknown origin) transfected in HEK293 cells assessed as increase in protein maturation at 10 nM incubated for 24 hrs by Western blot analysis
# [17] = test system: Cystic fibrosis transmembrane conductance regulator (Homo sapiens), P13569 [F508del/R1070W]; experiment: Corrector activity at CFTR F508del/R1070W mutant (unknown origin) transfected in HEK293 cells assessed as increase in […] at 10 nM incubated for 24 hrs by Western blot analysis
# [18] = target: Cystic fibrosis transmembrane conductance regulator (Homo sapiens) (UniProt P13569); experiment: Corrector activity at CFTR (unknown origin) transfected in HEK293 cells harboring CFTR fragment containing MSD1-NBD1-R assessed as increase in expression of CFTR level at 10 nM incubated for 24 hrs by Western blot analysis
# [19] = target: Cystic fibrosis transmembrane conductance regulator (Homo sapiens) (UniProt P13569); experiment: Corrector activity at CFTR (unknown origin) transfected in HEK293 cells harboring CFTR fragment containing MSD1 assessed as increase in expression of CFTR level at 10 nM incubated for 24 hrs by Western blot analysis
# [20] = target: Cystic fibrosis transmembrane conductance regulator (Homo sapiens) (UniProt P13569); experiment: Corrector activity at CFTR (unknown origin) transfected in HEK293 cells harboring CFTR fragment containing MSD1-NBD1 assessed as increase in expression of CFTR level at 10 nM incubated for 24 hrs by Western blot analysis
# [21] = test system: Cystic fibrosis transmembrane conductance regulator (Homo sapiens), P13569 [F508del]; experiment: Corrector activity at CFTR F508del mutant (unknown origin) expressed in human CFBE41o- cells assessed as restoration of CFTR level at 25 uM incubated for 30 mins by pull down assay
# [22] = test system: Cystic fibrosis transmembrane conductance regulator (Homo sapiens), P13569 [F508del/S364F]; experiment: Corrector activity at CFTR F508del/S364F mutant (unknown origin) transfected in HEK293 cells assessed as increase in protein maturation at 10 nM incubated for 24 hrs by Western blot analysis
# [23] = test system: Cystic fibrosis transmembrane conductance regulator (Homo sapiens), P13569 [F508del/N71I]; experiment: Corrector activity at CFTR F508del/N71I mutant (unknown origin) transfected in HEK293 cells assessed as increase in protein maturation at 10 nM incubated for 24 hrs by Western blot analysis
# [24] = target: Cystic fibrosis transmembrane conductance regulator (Homo sapiens) (UniProt P13569); experiment: Corrector activity at wild-type CFTR (unknown origin) expressed in human CFBE41o- cells assessed as restoration of CFTR level at 25 uM incubated for 30 mins by pull down assay
# [25] = target: Cystic fibrosis transmembrane conductance regulator (Homo sapiens) (UniProt P13569); experiment: Corrector activity at CFTR (unknown origin) transfected in HEK293 cells harboring CFTR fragment containing MSD2 assessed as effect on CFTR MSD2 stability at 10 nM incubated for 24 hrs by Western blot analysis
# [26] = target: Cystic fibrosis transmembrane conductance regulator (Homo sapiens) (UniProt P13569); experiment: Corrector activity at CFTR (unknown origin) transfected in HEK293 cells harboring CFTR fragment containing MSD2 assessed as increase in expression of CFTR level at 10 nM incubated for 24 hrs by Western blot analysis
# [27] = test system: Cystic fibrosis transmembrane conductance regulator (Homo sapiens), P13569 [F508del/R74A]; experiment: Corrector activity at CFTR F508del/R74A mutant (unknown origin) transfected in HEK293 cells assessed as increase in protein maturation at 10 nM incubated for 24 hrs by Western blot analysis
# [28] = target: Cystic fibrosis transmembrane conductance regulator (Homo sapiens) (UniProt P13569); experiment: Corrector activity at CFTR (unknown origin) transfected in HEK293 cells harboring CFTR fragment containing MSD2-NBD2 assessed as increase in expression of CFTR level at 10 nM incubated for 24 hrs by Western blot analysis
# [29] = test system: Cystic fibrosis transmembrane conductance regulator (Homo sapiens), P13569 [F508del/R1070W]; experiment: Corrector activity at CFTR F508del/R1070W mutant (unknown origin) transfected in HEK293 cells assessed as increase in […] at 3 uM incubated for 24 hrs by Western blot analysis
# [30] = test system: Cystic fibrosis transmembrane conductance regulator (Homo sapiens), P13569 [F508del/R1070W]; experiment: Corrector activity at CFTR F508del/R1070W mutant (unknown origin) transfected in HEK293 cells assessed as increase in protein maturation at 3 uM incubated for 24 hrs by Western blot analysis
compound,measurement,setting,value
C#Cc1ccc(O[C@H]2CCCc3c(C(F)(F)F)nn(-c4cccc(C(=O)N(C)c5ccc(C6(C(F)(F)F)N=N6)cc5)c4)c32)cc1,Activity,[1],inactive
C[C@H]1NC(=O)N[C@H]1CCCCCC(=O)NCCOCCOCCOCCn1cc(-c2ccc(O[C@H]3CCCc4c(C(F)(F)F)nn(-c5cccc(C(=O)N(C)c6ccc(C7(C(F)(F)F)N=N7)cc6)c5)c43)cc2)nn1,Activity,[2],Active
same,Activity,[3],Active
same,Activity,[4],inactive
same,Activity,[5],inactive
same,Activity,[6],inactive
C[C@H]1NC(=O)N[C@H]1CCCCCC(=O)NCCOCCOCCOCCn1cc(CCC2(CCNC(=O)c3ccc(O[C@H]4CCCc5c(C(F)(F)F)nn(-c6cccc(C(=O)N(C)c7ccc8c(c7)OC(F)(F)O8)c6)c54)cc3)N=N2)nn1,Activity,[2],Active
same,Activity,[3],Active
same,Activity,[4],inactive
same,Activity,[5],inactive
same,Activity,[7],2.8
same,Activity,[6],inactive
CN(C(=O)c1cccc(-n2nc(C(F)(F)F)c3c2[C@@H](Oc2ccc(C(=O)O)cc2)CCC3)c1)c1ccc2c(c1)OC(F)(F)O2,Activity,[8],Active
same,Activity,[9],Not active; Protein Maturation Markedly Reduced Or Abolished
same,Activity,[10],Active
same,Activity,[11],Active
same,Activity,[12],Active
same,Activity,[13],Not active; Protein Maturation Markedly Reduced Or Abolished
same,Activity,[14],Active
same,Activity,[15],Not active; Protein Maturation Markedly Reduced Or Abolished
same,Activity,[16],Active
same,Activity,[17],Active
same,Activity,[18],Active
same,Activity,[19],Active
same,Activity,[20],Active
same,Activity,[21],inactive
same,Activity,[22],Not active; Slightly Reduced Protein Maturation
same,Activity,[23],Active
same,Activity,[24],inactive
same,Activity,[25],inactive
same,Activity,[26],inactive
same,Activity,[27],Not active; Slightly Reduced Protein Maturation
same,Activity,[28],inactive
CC(C)(CO)c1cc2cc(NC(=O)C3(c4ccc5c(c4)OC(F)(F)O5)CC3)c(F)cc2n1C[C@@H](O)CO,Activity,[29],Active
same,Activity,[30],Active
